Measurements reported in article PMC5667785 (International Journal of Nanomedicine, 2017).

Legend:
[1] = Cur stability in Krebs–Ringer intestinal circulation-perfusion solution; assay type: physicochemical; conditions: 2 hours at 37°C
liver microsomal enzymes = conditions: within 30 minutes ref 14; cited from earlier work
[2] = Critical micelle concentration by surface-tension measurements; assay type: physicochemical

Row | Cur stability in the KR solution [1] | Compound | Biotransformation of Cur to sulfate or glucuronide conjugates (liver microsomal enzymes) [%] | Critical micelle concentration [2] [µg/mL]
1 | neither degraded | COc1cc(/C=C/C(=O)CC(=O)/C=C/c2ccc(O)c(OC)c2)ccc1O [Cur, Curcumin] | 90 | 
2 |  | TCA-PEG100-monostearate [S100-TCA] |  | 15.86 ± 0.53
